Laboratory results: US20180249713A1, “Composition for Protection of Plants, Fruit and Vegetables” (priority 2015, published 2018)
Read-outs that look alike come from different tables or passages of the source.

How the values were obtained:
Fusarium [1] = test: Effect on Fusarium (Spore Growth) in vitro study; assay type: cell-based, Fusarium culmorum
Experimental: (§1) Sensitivity towards Tebuconazole (control) and Biocides A and B (see tables 1A and 1B) respectively, was tested in petri dishes using spore suspension containing 2.5×10^4 spores/ml of each fungal isolate or a mycelium block. 5-6 different concentrations of Biocide A and B respectively, as outlined in table 3 below were used in the tests.
(§2) For the tests, the two biocides A and B where individually mixed with potato dextrose broth to achieve the appropriate test concentration. Percent inhibition was assessed after a few days depending on the fungi and its growth rates measured in relation to control.

[2] = system: Puccinia striiformis f. sp. tritici (Pst); test: Indoor greenhouse study, stripe (yellow) rust, preventive and curative; assay type: in vivo; details: preventive spray one day prior to infection, curative three days later; 30, 100, 300, 1000 ppm; evaluated 16 days later
Text: In this study we used tebuconazole as fungicidal reference (control) and the above outlined biocide A and B compositions for testing the effect on Stripe (yellow) rust, caused by Puccinia striiformis f. sp. tritici (Pst). The applied method also tests preventive and curative effects of the elected fungicide compositions.
The scale used is 0=no attack;
1=necrose with a few pustules; 5=half of the infected leafs are attacked by pustules; 10=100% attack of the leafs.
The leafs were sprayed preventive one day prior to infection with Stripe (yellow) rust. Three days later the plants were sprayed for curative purposes.
16 days later the plant were evaluated.
The following doses were used for both preventive and curative experiments: 30, 100, 300, 1000 ppm

Fusarium [3] = test: Effect on Fusarium (Mycelie Growth) in vitro study; assay type: cell-based, Fusarium culmorum
Experimental: as §1, §2

CC(C)(C)C(O)(CCc1ccc(Cl)cc1)Cn1cncn1 (stereo not shown) [Tebuconazole]
Growth (Septoria tritici; 0.1 ppm): 10%
Growth (Septoria tritici; 1 ppm): 5%
Growth (Septoria tritici; 3.3 ppm): 0%
Growth (Septoria tritici; 10 ppm): 0%
Growth (Septoria tritici; 33 ppm): 0%
Growth (Septoria tritici; 100 ppm): 0%
Growth (Fusarium [1]; 0.1 ppm): 25%
Growth (Fusarium [1]; 1 ppm): 0%
Growth (Fusarium [1]; 3.3 ppm): 0%
Growth (Fusarium [1]; 10 ppm): 0%
Growth (Fusarium [1]; 33 ppm): 0%
Growth (Fusarium [1]; 100 ppm): 0%
effect on Stripe (yellow) rust attack [2]: able to eliminate the fungi attack both in a preventive and a curative manner
Growth (Fusarium [3]; 0.1 ppm): 10%
Growth (Fusarium [3]; 1 ppm): 10%
Growth (Fusarium [3]; 3.3 ppm): 0%
Growth (Fusarium [3]; 10 ppm): 0%
Growth (Fusarium [3]; 33 ppm): 0%
Growth (Fusarium [3]; 100 ppm): 0%
